Where two headings read alike, the source gives them in different places.
Assays:
[1] = target: T1, p53-MDM2 interaction (Homo sapiens, UniProt Q00987); experiment: AlphaLISA inhibitor screening assay, p53-MDM2 (cellular extracts with p53-His and MDM2-GST); assay type: biochemical; conditions: 33.3 μg/well MDM2-GST extract, Fig. 4; for concentration above which the AlphaLISA signal reached a plateau: dose-response, 1:10 serial dilutions
T1 construct: made in house; host or cells: MDM2-GST: Escherichia coli BL21 (DE3), crude extract; p53-His: HEK293T cells transfected with pEnter-p53, crude lysate

[2] = test system: p53/MDM2 interaction; conditions: cited from earlier work
[3] = target: MDM2; parameters: method as in PMID 27764791; conditions: read-out: Ki, MDM2 antagonist; cited from earlier work

T1 sequence (Q00987 whole entry): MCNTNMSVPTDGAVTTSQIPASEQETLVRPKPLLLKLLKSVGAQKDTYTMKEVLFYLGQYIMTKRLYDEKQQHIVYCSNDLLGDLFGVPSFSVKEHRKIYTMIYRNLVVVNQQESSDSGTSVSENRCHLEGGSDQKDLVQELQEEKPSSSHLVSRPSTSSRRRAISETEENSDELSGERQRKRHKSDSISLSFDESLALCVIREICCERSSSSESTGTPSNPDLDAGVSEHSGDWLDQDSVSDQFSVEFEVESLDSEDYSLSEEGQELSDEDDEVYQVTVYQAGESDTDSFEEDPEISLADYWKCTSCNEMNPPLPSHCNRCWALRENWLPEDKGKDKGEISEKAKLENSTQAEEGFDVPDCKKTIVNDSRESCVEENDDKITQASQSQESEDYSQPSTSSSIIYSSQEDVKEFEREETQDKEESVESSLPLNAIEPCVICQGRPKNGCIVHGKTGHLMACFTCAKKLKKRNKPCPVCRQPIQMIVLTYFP

## COc1cc(C(=O)O)ccc1NC(=O)[C@@H]1N[C@@H](CC(C)(C)C)[C@](C#N)(c2ccc(Cl)cc2F)[C@H]1c1cccc(Cl)c1F [Idasanutlin]
[1]; serial dilutions starting with 20 μM
  course of AlphaLISA response signal with increasing inhibitor dose: continued to rise rapidly
[2]; read-out: IC50, p53-MDM2 inhibitor
  IC50: 6 nM

## CC(C)(C)C[C@@H]1N[C@@H](C(=O)N[C@H]2CC[C@H](O)CC2)[C@H](c2cccc(Cl)c2F)[C@]12C(=O)Nc1cc(Cl)ccc12 [MI-773]
[1]
  concentration above which the AlphaLISA signal reached a plateau: exceeded 1 μΜ
[3]
  Ki: 0.88 nM

## CCOc1cc(C(C)(C)C)ccc1C1=N[C@@](C)(c2ccc(Cl)cc2)[C@@](C)(c2ccc(Cl)cc2)N1C(=O)N1CCN(CCCS(C)(=O)=O)CC1 [RG-7112]
[1]
  concentration above which the AlphaLISA signal reached a plateau: exceeded 1 μΜ
